This passage reports EC50 results from patent US7745636B2, “Hepatitis C virus inhibitors” (Bristol-Myers Squibb Company, priority 2006, dated 2010).

This experiment deals with HCV 1b-377-neo replicon cells. The experiment is described as follows: HCV Replicon assay, HCV 1b-377-neo replicon cells. The class given is cell-based, HCV 1b genotype. Particulars: Table 2, read-out: Range (EC50 against HCV 1b). In general terms: A replicon is a self-replicating genome or part of one, used to study replication in cells.

Each structure is given as a SMILES string. Where two headings read alike, the source gives them in different places.

As usually defined, the EC50 is the concentration at which the effect is half-maximal. Regarding `COC(=O)N[C@@H](C(=O)N1CCC[C@H]1c1nc(-c2cnc(-c3ccc(-c4cnc([C@@H]5CCCN5C(=O)[C@H](NC(=O)OC)c5ccccc5)[nH]4)c(F)c3)nc2)c[nH]1)c1ccccc1` [Example D69, methyl ((1R)-2-((2S)-2-(5-(2-(3-fluoro-4-(2-((2S)-1-((2R)-2-((methoxycarbonyl)amino)-2-phenylacetyl)-2-pyrrolidinyl)-1H-imidazol-5-yl)phenyl)-5-pyrimidinyl)-1H-imidazol-2-yl)-1-pyrrolidinyl)-2-oxo-1-phenylethyl) carbamate], where the note is “Hepatitis C virus”, the EC50 fell in the range of 0.001 to 0.999 nM. The same measure, in the same setting: in the case of `COC(=O)N[C@@H](C(=O)N(C)[C@@H](C)c1ncc(-c2ccc(-c3ccc(-c4cnc([C@@H]5CCCN5C(=O)[C@@H](c5ccccc5)N(C)C)[nH]4)cc3)cc2)[nH]1)c1ccccc1` [Example 131.1-1, methyl((1R)-2-(((1S)-1-(5-(4′-(2-((2S)-1-((2R)-2-(dimethylamino)-2-phenylacetyl)-2-pyrrolidinyl)-1H-imidazol-5-yl)-4-biphenylyl)-1H-imidazol-2-yl)ethyl) (methyl)amino)-2-oxo-1-phenylethyl)carbamate] it was 0.001 to 0.999 nM. As to `O=C1N[C@H](C(=O)N2CCC[C@H]2c2ncc(-c3ccc(-c4ccc(-c5cnc([C@@H]6CCCN6C(=O)[C@@H]6CCOC(=O)N6)[nH]5)cc4)cc3)[nH]2)CCO1` [LS11], the EC50 lay in the range of 1000 to 10000 nM. `C[C@@H](c1ncc(-c2ccc(-c3ccc(-c4cnc([C@H](C)N(C)C(=O)[C@@H](c5ccccc5)N5CCCCC5)[nH]4)cc3)cc2)[nH]1)N(C)C(=O)[C@@H](c1ccccc1)N1CCCCC1` [Example 24-18-3, (2R,2′R)-N,N′-(4,4′-biphenyldiylbis (1H-imidazol-5,2-diyl(1S)-1,1-ethanediyl))bis(N-methyl-2-phenyl-2-(1-piperidinyl)acetamide)]: the EC50 (Hepatitis C virus) was 0.001 to 0.999 nM. The same measure, in the same setting: with `COC(=O)N[C@@H](C(=O)N(C)[C@@H](C)c1ncc(-c2ccc(-c3ccc(-c4cnc([C@H](C)N(C)C(=O)[C@H](NC(=O)OC)c5ccccc5)[nH]4)cc3)cc2)[nH]1)c1ccccc1` [Example 24-18-1, dimethyl (4,4′-biphenyldiylbis (1H-imidazole-5,2-diyl(1S)-1,1-ethanediyl(methyl-imino)((1R)-2-oxo-1-phenyl-2,1-ethanediyl))) biscarbamate] the figure was 0.001 to 0.999 nM; with `COC(=O)N[C@@H](C(=O)N[C@@H](C)c1ncc(-c2ccc(-c3ncc(-c4cnc([C@@H]5CCCN5C(=O)[C@H](NC(=O)OC)c5ccccc5)[nH]4)cn3)cc2)[nH]1)c1ccccc1` [Example 152j-15, methyl ((1R)-2-((2S)-2-(5-(2-(4-(2-((1S)-1-(((2R)-2-((methoxycarbonyl)amino)-2-phenylace-tyl)amino)eth-yl)-1H-imidazol-5-yl)phenyl)-5-pyrimidinyl)-1H-imidazol-2-yl)-1-pyrrolidinyl)-2-oxo-1-phenylethyl)carbamate], 0.001 to 0.999 nM; with `COC(=O)N[C@@H](C(=O)N1CCC[C@H]1c1ncc(-c2ccc(-c3ccc(-c4cnc([C@@H]5CCCN5C(=O)N5CCOCC5)[nH]4)cn3)cc2)[nH]1)c1ccccc1` [Example 144, methyl((1R)-2-((2S)-2-(5-(4-(5-(2-((2S)-1-(4-morpholinylcarbonyl)-2-pyrrolidinyl)-1H-imidazol-5-yl)-2-pyridinyl)phenyl)-1H-imidazol-2-yl)-1-pyrrolidinyl)-2-oxo-1-phenylethyl)carbamate], 0.001 to 0.999 nM. For `CN(C)[C@@H](C(=O)N1CCC[C@H]1c1ncc(-c2ccc(-c3ccc(-c4cnc([C@@H]5CCCN5C(=O)[C@@H](c5ccccc5)N(C)C)[nH]4)nn3)cc2)[nH]1)c1ccccc1` [Example 152j-9, (1R)-2-((2S)-2-(5-(6-(4-(2-((2S)-1-((2R)-2-(dimethylamino)-2-phenylacetyl)-2-pyrrolidinyl)-1H-imidazol-5-yl)phenyl)-3-pyridazinyl)-1H-imidazol-2-yl)-1-pyrrolidinyl)-N,N-dimethyl-2-oxo-1-phenylethanamine], the 50% effective concentration (EC50) (Hepatitis C virus) was in the range of 1 to 99 nM. On the same count and under the same terms, with `COC(=O)N[C@@H](C(=O)N1CCC[C@H]1c1ncc(-c2ccc(-c3ncc(-c4cnc([C@@H]5CCCN5C(=O)[C@@H](c5ccccc5)N5CCCCC5)[nH]4)cn3)cc2)[nH]1)c1ccccc1` [Example 152l-3, methyl ((1R)-2-oxo-1-phenyl-2-((2S)-2-(4-(4-(5-(2-((2S)-1-((2R)-2-phenyl-2-(1-piperidinyl)acetyl)-2-pyrrolidinyl)-1H-imidazol-5-yl)-2-pyrimidinyl)phenyl)-1H-imidazol-2-yl)-1-pyrrolidinyl)ethyl) carbamate] the figure was 0.001 to 0.999 nM; with `CC(=O)N[C@@H](C(=O)N1CCC[C@H]1c1ncc(-c2ccc(-c3ccc(-c4cnc([C@@H]5CCCN5C(=O)[C@H](NC(C)=O)c5ccccc5)[nH]4)cn3)cc2)[nH]1)c1ccccc1` [Example 139, N-((1R)-2-((2S)-2-(5-(6-(4-(2-((2S)-1-((2R)-2-acetamido-2-phenylacetyl)-2-pyrrolidinyl)-1H-imidazol-5-yl)phenyl)-3-pyridinyl)-1H-imidazol-2-yl)-1-pyrrolidinyl)-2-oxo-1-phenylethyl)acetamide], 0.001 to 0.999 nM; with `COC(=O)N[C@H](C(=O)N1CCC[C@H]1c1nc(-c2cnc(-c3ccc(-c4cnc([C@@H]5CCCN5C(=O)[C@@H](NC(=O)OC)C(C)C)[nH]4)cc3)nc2)c[nH]1)C(C)C` [Example D74, methyl ((1S)-1-(((2S)-2-(5-(2-(4-(2-((2S)-1-((2S)-2-((methoxycarbonyl)amino)-3-methylbutanoyl)-2-pyrrolidinyl)-1H-imidazol-5-yl)phenyl)-5-pyrimidinyl)-1H-imidazol-2-yl)-1-pyrrolidinyl)carbonyl)-2-methylpropyl) carbamate], 0.001 to 0.999 nM.

Consider `COC(=O)N[C@@H](C(=O)N1CCC[C@H]1c1ncc(-c2ccc(-c3ccc(-c4cnc([C@@H]5CCCN5C(=O)Cc5cccnc5)[nH]4)cc3C)cc2)[nH]1)c1ccccc1` [Example 127, methyl ((1R)-2-((2S)-2-(5-(2′-methyl-4′-(2-((2S)-1-(3-pyridinylacetyl)-2-pyrrolidinyl)-1H-imidazol-5-yl)-4-biphenylyl)-1H-imidazol-2-yl)-1-pyrrolidinyl)-2-oxo-1-phenylethyl)carbamate], for which the EC50 (Hepatitis C virus) lay in the range of 0.001 to 0.999 nM. `C[C@H](NC(=O)[C@@H](c1ccccc1)N(C)C)c1ncc(-c2cnc(-c3ccc(-c4cnc([C@@H]5CCCN5C(=O)[C@@H](c5ccccc5)N(C)C)[nH]4)cc3)cn2)[nH]1` [Example 152j-18, (2R)-2-(dimethylamino)-N-((1S)-1-(5-(5-(4-(2-((2S)-1-((2R)-2-(dimethylamino)-2-phenylacetyl)-2-pyrrolidinyl)-1H-imidazol-5-yl)phenyl)-2-pyrazinyl)-1H-imidazol-2-yl)ethyl)-2-phenylacetamide]: where the note is “Hepatitis C virus”, the EC50 was 0.001 to 0.999 nM. Still for that read-out and setting: in the case of `CN(C)[C@@H](C(=O)N1CCC[C@H]1c1ncc(-c2ccc(-c3ccc(-c4cnc([C@@H]5CCCN5C(=O)[C@@H](c5ccccc5)N(C)C)[nH]4)nc3)cc2)[nH]1)c1ccccc1` [Example 146, (1R)-2-((2S)-2-(5-(5-(4-(2-((2S)-1-((2R)-2-(dimethylamino)-2-phenylacetyl)-2-pyrrolidinyl)-1H-imidazol-5-yl)phenyl)-2-pyridinyl)-1H-imidazol-2-yl)-1-pyrrolidinyl)-N,N-dimethyl-2-oxo-1-phenylethanamine] it was 0.001 to 0.999 nM.
